Data published in patent US11834698B2, “Process for determining enzyme activity in a cell by activity-based reporter gene technology (ABRGT)” (INDIAN INSTITUTE OF SCIENCE EDUCATION AND RESEARCH, priority 2018, dated 2023).

Target: T1, recombinant human caspase-3 His tagged enzyme (rcaspase-3) (Homo sapiens, UniProt P42574)
T1 construct: The purified rcaspase-3 was confirmed with the two peaks obtained at 12939 and 16598 Da; His tag; made in house
T1 sequence (P42574 29-175 limits assumed): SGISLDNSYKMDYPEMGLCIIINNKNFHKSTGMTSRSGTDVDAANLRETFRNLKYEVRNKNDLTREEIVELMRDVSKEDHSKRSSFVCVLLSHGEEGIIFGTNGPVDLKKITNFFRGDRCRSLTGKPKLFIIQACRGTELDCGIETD
T1 sequence (P42574 176-277 limits assumed): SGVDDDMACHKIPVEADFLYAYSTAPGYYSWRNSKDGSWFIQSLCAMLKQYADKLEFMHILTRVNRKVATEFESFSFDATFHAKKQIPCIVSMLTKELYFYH
Test: In-gel fluorescence labelling of purified rcaspase-3 by fABP
Assay type: binding
Description: FIG. 4 depicts (a) labelling of purified rcaspase-3 (2 μM) by probe 1 at a concentration of 100, 500 and 2000 nM. (b) integrated band intensity values. (c) The specificity of probe 1 (1 μM) to label active enzyme (500 nM); (lane 1: active rcaspase-3 in the presence of probe 1, lane 2: thermally denatured rcaspase-3 in the presence of probe 1.
To establish AbRGT, the specific activation of caspase-3 GFPspark was monitored, in the apoptosis signalling pathway, using fABP, Rhodamine-VAD-fluoromethyl ketone (Rh-VAD-FMK) probe (probe 1) (Micale et al., JACS, 2004) [FIG. 2(a)] in MCF-7 cells. Here, rhodamine is the fluorescent tag, VAD is the peptide recognition sequence for caspases and FMK is the reactive warhead for targeting pan-caspases. Before monitoring the specific caspase-3 activation in the native cellular environment, the active-site labelling of probe 1 to the caspase-3 enzyme in in vitro conditions was first validated. The recombinant human caspase-3 His tagged enzyme (rcaspase-3) was expressed and purified using Ni-NTA column chromatography (Stennicke et al., Methods, 1999). […] The labelled enzyme samples were then separated on a 12% SDS-PAGE gel and were visualized using an in-gel fluorescence scanner. […]

Substance: Rhodamine-VAD-fluoromethyl ketone [probe 1]
- fluorescence signal after thermal denaturation of rcaspase-3 before labelling (probe 1 μM, enzyme 500 nM): completely abolished
- concentration at which probe effectively labelled rcaspase-3 (rcaspase-3 2 μM, probe 100, 500, 2000 nM, SDS-PAGE in-gel fluorescence): ≤ 100 nM
